{"source": "paper PMC11271178", "about": "“Effect of Added Salt on the RAFT Polymerization of 2-Hydroxyethyl Methacrylate in Aqueous Media” (Macromolecules, 2024)", "key": {"[1]": {"settings": "cited from earlier work"}, "[2]": {"assay": "Aqueous solubility of HEMA monomer vs added NaCl at 70 °C (gravimetric titration, visual end point)", "assay_type": "physicochemical", "method": "Deionized water (2.0 g) was added to a pre-weighed vial equipped with a magnetic stir bar. This vial was placed in an oil bath set at 70 °C and allowed to equilibrate for 20 min. HEMA was added to a second pre-weighed vial and then added dropwise to the first vial at 70 °C. After the addition of each drop of HEMA, the aqueous HEMA mixture was stirred at 70 °C for 1 min. Visual inspection was used to judge the point at which the HEMA monomer droplets were no longer fully dissolved. […] This experiment was repeated with the deionized water being replaced with a series of aqueous salt solutions (up to 3 M NaCl).\nHowever, its aqueous solubility strongly depends on the presence of salt. For example, the digital photograph shown in Figure 1 (blue frame) clearly illustrates the transition from fully soluble HEMA in 0–0.6 M NaCl to (partially) immiscible HEMA in the presence of 1.5 M NaCl. This change in physical appearance is used as the “end point” for a series of gravimetric titrations to determine the aqueous solubility of HEMA in various salt solutions at 70 °C. For example, HEMA solubility is reduced from 1305 g dm^–3 in 0.75 M NaCl to just 93 g dm^–3 in 3 M NaCl (see Figure 1). In principle, this should be sufficient for the mode of polymerization to switch from an aqueous dispersion polymerization to an aqueous emulsion polymerization. Moreover, added salt was also expected to lower the critical DP at which PHEMA chains become water-insoluble. Combining the salt-tunable aqueous solubility of HEMA with a suitable salt-tolerant precursor such as PMPC should facilitate a systematic study of the effect of added salt on the polymerization kinetics and copolymer morphology."}}, "data": [{"compound": "C=C(C)C(=O)OCC(F)(F)F", "note": "[2,2,2-trifluoroethyl methacrylate]", "values": [{"measurement": "aqueous solubility of monomer", "setting": "[1]", "value": "≤ 1", "unit": "g dm^–3"}]}, {"compound": "C=C(C)C(=O)OCCO", "note": "[HEMA, 2-hydroxyethyl methacrylate]", "values": [{"measurement": "aqueous solubility of HEMA", "setting": "[2]; 0.75 M NaCl, 70 °C", "value": 1305, "unit": "g dm^–3"}, {"measurement": "aqueous solubility of HEMA", "setting": "[2]; 3 M NaCl, 70 °C", "value": 93, "unit": "g dm^–3"}, {"measurement": "solubility at 1 min", "setting": "[2]; aqueous 1.5 M NaCl solution, water, 1.5 M NaCl, 70 °C, homogeneous at lower, emulsion at higher concentration, read-out: aqueous solubility of HEMA (homogeneous mixture vs emulsion)", "value": "≥ 171", "unit": "mg/mL"}, {"measurement": "miscibility of HEMA with water", "setting": "[2]; no added salt", "value": "fully miscible with water in all proportions"}, {"measurement": "miscibility of HEMA with water", "setting": "[2]; up to 0.6 M NaCl, 70 °C", "value": "water-miscible in all proportions"}]}, {"compound": "C=C(C)C(=O)OCc1ccccc1", "note": "[benzyl methacrylate]", "values": [{"measurement": "aqueous solubility of monomer", "setting": "[1]", "value": "≤ 1", "unit": "g dm^–3"}]}, {"compound": "C=Cc1ccccc1", "note": "[styrene]", "values": [{"measurement": "aqueous solubility of monomer", "setting": "[1]", "value": "≤ 1", "unit": "g dm^–3"}]}]}
